Consider 1 compound from ChEMBL document CHEMBL4041543, “Light induced drug release from a folic acid-drug conjugate” (Bioorg Med Chem Lett, 2017).

This assay can be described thus: Drug level treated with Photo Dox-Fol conjugate assessed as photolysis-mediated compound release in presence of 1.1 J/cm2 UV light irradiation by RP-HPLC method.

Turning to `COc1cccc2c1C(=O)c1c(O)c3c(c(O)c1C2=O)C[C@@](O)(C(=O)CO)C[C@@H]3O[C@H]1C[C@H](N)[C@H](O)[C@H](C)O1`, the Drug metabolism entry was “Metabolite detected”.
